The source of these data is patent publication US20220152031A1, “PYRIDAZINONES AND METHODS OF USE THEREOF” (Goldfinch Bio, Inc., priority 2019, published 2022).

Entries after “also recorded” stand apart in the source; their conditions may differ.

One data set concerns the target T1, TRPC4 (Homo sapiens, UniProt Q9UBN4).
T1 construct: expressed in transfected cells
T1 sequence (Q9UBN4 1-982 isoform Q9UBN4-5): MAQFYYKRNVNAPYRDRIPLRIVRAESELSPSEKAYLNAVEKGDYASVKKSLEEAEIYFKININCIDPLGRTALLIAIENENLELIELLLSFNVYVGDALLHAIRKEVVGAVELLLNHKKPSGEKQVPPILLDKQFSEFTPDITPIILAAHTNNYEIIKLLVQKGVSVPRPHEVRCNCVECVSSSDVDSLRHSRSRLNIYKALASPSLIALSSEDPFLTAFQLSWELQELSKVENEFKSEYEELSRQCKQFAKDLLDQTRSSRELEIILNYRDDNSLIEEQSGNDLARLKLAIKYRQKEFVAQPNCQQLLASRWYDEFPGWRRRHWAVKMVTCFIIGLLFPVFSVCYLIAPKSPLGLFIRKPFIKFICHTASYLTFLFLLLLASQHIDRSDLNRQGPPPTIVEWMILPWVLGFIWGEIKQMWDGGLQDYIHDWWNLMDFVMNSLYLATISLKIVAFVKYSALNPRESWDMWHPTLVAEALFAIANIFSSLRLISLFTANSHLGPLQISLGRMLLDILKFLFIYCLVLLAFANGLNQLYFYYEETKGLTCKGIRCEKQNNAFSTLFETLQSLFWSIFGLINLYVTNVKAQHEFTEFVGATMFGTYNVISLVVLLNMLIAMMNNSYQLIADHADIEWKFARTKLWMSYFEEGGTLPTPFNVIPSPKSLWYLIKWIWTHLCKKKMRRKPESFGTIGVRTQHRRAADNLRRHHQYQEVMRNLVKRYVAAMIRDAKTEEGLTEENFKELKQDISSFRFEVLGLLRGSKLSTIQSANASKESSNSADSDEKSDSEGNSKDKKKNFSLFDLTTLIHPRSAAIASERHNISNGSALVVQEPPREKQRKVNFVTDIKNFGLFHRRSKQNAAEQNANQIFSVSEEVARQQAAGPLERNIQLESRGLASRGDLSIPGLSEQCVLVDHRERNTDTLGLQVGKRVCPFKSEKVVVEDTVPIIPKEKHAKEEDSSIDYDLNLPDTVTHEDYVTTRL
The data set can be described thus: TRPC4 activity assay (FLIPR calcium fluorescence, HEK-TREx hTRPC4 cells). Format: cell-based. Conditions: Table 5, HEK-TREx hTRPC4; read-out: TRPC4 FLIPR IC50. The protocol: ICLN-1694 cells (HEK-TREx hTRPC4) expressing TRPC4 were generated as follows. Commercially available HekTrex-293 cells were seeded at 0.7×10^6 cells/well in a 1×6-well plate 24 hrs prior to transfection using 2 mL cell growth media containing no antibiotics (lx DMEM/high glucose (Hyclone #SH30022.02); 10% fetal bovine serum (Sigma) 2 mM sodium pyruvate, 10 mM HEPES). […] On day 2, 2 μg of plasmid DNA plus 6 μl of Xtreme-GENE HP reagent in Optimem (200 μl total volume) was prepared and incubated for 15 min at room temperature. This plasmid solution was then gently overlayed dropwise onto each well and the plate was gently swirled to mix complex with the media for approximately 30 seconds. Transfected cells were incubated at 37° C. in a 10% CO2 incubator for 24 hrs. The transfected cells were harvested and transferred into 2×150 mm dishes containing cell growth media with no antibiotics at 37° C.
The next day selection was initiated to generate a stable pool by adding cell growth media containing 150 μg/mL Hygromycin and 5 μg/mL Blasticidin and cells were allowed to grow. Media with the selection agent was changed every 1-2 days as needed to remove dead cells. After 7 days, the hygromycin concentration was reduced to 75 μg/mL and cells growth was allowed to continue.
Single clones were selected as follows. The stable pool was diluted to 10 cells/mL and seeded (100 μl/well) into 24×96 well plates (˜1 cell/well) and allowed to grow for 7 days in cell growth media. Fresh media (100 μl) was added and the cells allowed to grow for another 1-2 weeks and then stored frozen or used immediately.
10-point dose response curves were generated using the Echo-550 acoustic dispenser. Compound source plates were made by serially diluting compound stocks to create 10 mM, 1 mM, and 0.1 mM solutions in DMSO into Echo-certified LDV plates. The Echo then serially spotted 100% DMSO stock solutions into source dose response plates to generate a 4-fold dilution scheme. 100% DMSO was added to the spotted dose response plates to bring the final volume to 5 μl. 300 nl of the dose response stock plate was then spotted into pre-incubation and stimulation assay plates. 50 μl of pre-incubation buffer and 100 μl of stimulation buffer was then added to the plates resulting in a final assay test concentration range of 30 μM to 0.0001 μM with a final DMSO concentration of 0.3%.
ICLN-1694 cells (HEK-TREx hTRPC4) were plated onto 384 well, black pdl-coated microplates and maintained in cell growth media supplemented with 1 μg/mL tetracycline the day prior to use for experiments. TRPC4 expression was induced by the application of 1 μg/mL tetracycline at the time of plating. […] Cells were incubated at room temperature, protected from light, for 60-90 minutes. After the incubation period, the dye was removed and replaced with 10 μl of EBSS. Cell, pre-incubation and stimulation plates were loaded onto the FLIPR-II and the assay was initiated. The FLIPR measured a 10 second baseline and then added 10 μl of 2× compounds (or controls). Changes in fluorescence were monitored for an additional 5 minutes. After a 5 minute pre-incubation, 20 μl of 2× Englerin A (with 1× compound or controls) was added to the cell plate. The final Engerlin A stimulation concentration in the assay was 100 nM. After the Englerin A addition, changes in fluorescence were monitored for an additional 5 minutes.
Compound modulation of TRPC4 calcium response was determined as follows. After the Englerin A, fluorescence was monitored for a 5-minute period. The maximum relative fluorescence response (minus the control response of 1 μM of an internal control compound known to maximally block TRPC4 calcium response, the “REF INHIB” in the formula below) was captured and exported from the FLIPR.
Compound effect is calculated as % inhibition using the following formula: […]
wherein “RFU” is the relative fluorescent units.

Another data set deals with PAN-injured rats. The data set can be described thus: Puromycin aminonucleoside (PAN)-induced glomerular injury in rats. Type of data set: in vivo, Sprague-Dawley rats. Conditions: for albuminuria: PAN model of glomerular injury in rats. From the text:
The objective of this study is to evaluate the dose-dependent effects of compound 100 on PAN induced glomerular kidney injury as indexed by albuminuria. Eighty (80), male Sprague-Dawley rats weighing approximately 125-150 g and approximately 5-6 weeks of age were acquired from Charles River. They were fed a standard chow diet (Harlan 8640), housed under standard conditions, and allowed to acclimate for at least 5 days prior to study inception. On D-2, rats were placed into weight-matched treatment groups and were placed, individually housed, into metabolic cages for the balance of the study. A 24 hour baseline (Day 0) urine was collected followed by a baseline blood collection via conscious tail venous puncture. Rats were then administered vehicle or test article. Two (2) hours following administration of vehicle or test agent on Day 0, rats received an administration of (5 mL/kg, s.c.) vehicle (sterile saline) or puromycin aminonucleoside (PAN; challenge agent; 75 mg/kg) dissolved in vehicle. Intermittent (Day 4, 7 and 10) 24 hour urine volumes were determined and samples (4 samples/animal/time point; 0.5 mL/sample) were obtained. Additionally, intermittent (Day 4, 7 and 10) blood samples were collected via conscious tail venous puncture 2 hours±1 minute post-AM dose. Immediately following the last blood collection, rats were anesthetized with isoflurane, tissues harvested, and animals sacrificed. Endpoint kidney weights and indices were obtained. Urine samples were immediately flash-frozen in liquid N2 and stored at −80° C. until analyzed. Whole blood samples collected on K3EDTA were processed appropriately for the production of plasma for PK measurements.

Data set [1] is described as follows: Drug exposure in human kidney organoid implanted under the rat kidney capsule after oral dosing. Type of data set: in vivo. Conditions: 10 mg/kg PO QD for 3 consecutive days, necropsy after 3 days. The protocol: Initially a space was created under the kidney capsule with angled fine forceps. A 22G blunt needle was used to further open the space under the kidney capsule. An angled cut was made at the tip of the 18G feeding tube attached to a 1 mL syringe. The 18G feeding tube was pre-wet with APEL2 medium, and one organoid from the dish containing APEL2 with the 18G feeding tube was carefully aspirated, keeping the entire organoid close to the tip of the 18G feeding tube, and not aspirating organoid into the syringe. An 18G feeding tube containing the organoid was inserted into the space created under the kidney capsule, and the organoid was injected towards the back end of the created space. The animal was closed, and then the procedure was repeated on the second kidney. After the second transplant, the animal was closed again and allowed to recover from anesthesia. The next organoid was started to be removed from TW (2+1 spare organoids) upon closing of animal after second kidney capsule transplant.
Compound 100 was administered to animals after transplant orally, once-daily as follows:
After 3 days, necropsy was performed to study distribution of compound 100 in the animal.

The next data set has as its system AT1R transgenic rats. The data set can be described thus: AT1R transgenic rat model of FSGS. Format: in vivo. Conditions: oral once daily 3 mg/kg or 10 mg/kg; UniNX and AngII infusion; up to 3 weeks of treatment. As for the experimental part:
The AT1R transgenic rat model of FSGS is characterized by podocyte-specific expression of human AT1R. […] See Zhou et al., Science (2017), vol. 358 (6368), 1332-1336. In the present study, pathophysiology in AT1R transgenic rats was accelerated with unilateral nephrectomy (UniNX) and minipump AngII infusion. Compound 100 was dosed orally once daily at 3 mg/kg or 10 mg/kg, and the urine protein creatinine ratio was determined at −1, 0, 1, 2, and 3 weeks of treatment.

In the case of `CC(c1ccc(F)cc1C(F)(F)F)N1C[C@@H](C)N(c2cn[nH]c(=O)c2Cl)CC1=O` (single isomer, unassigned) [MD], the IC50 at TRPC4 lay in the range of 0.01 to 1000 nM.
For `NC(=O)c1ncn([C@@H]2O[C@H](CO)[C@@H](O)[C@H]2O)c1O` [Mizoribine, mizoribine, reference compound], the albuminuria entry with PAN-injured rats was “efficacious in reducing albuminuria”.
With `O=c1[nH]ncc(N2CCc3c(ncnc3Oc3ccc(F)cc3C(F)(F)F)C2)c1Cl` [Compound 100, 4-chloro-5-[4-[4-fluoro-2-(trifluoromethyl)phenoxy]-5H,6H,7H,8H-pyrido[3,4-d]pyrimidin-7-yl]-2,3-dihydropyridazin-3-one], the urinary albumin excretion entry with PAN-injured rats (30 mg/kg BID dosing, at 7 and 10 days) is “Significant reductions”; in the data set on PAN-injured rats (30 mg/kg QD dosing, at 10 days), “Significant reductions”; in the data set with PAN-injured rats (30 mg/kg once (QD) or twice (BID) daily, following injury with PAN) it was “reduced urinary albumin excretion”. For the same molecule, the albuminuria entry in the data set on PAN-injured rats was “effective in reducing albuminuria”. Moreover, in data set [1], the “drug exposure in implanted organoid” value was “drug exposure in the implanted organoid; also recorded: drug exposure in an implanted organoid”. The “efficacy (urine protein creatinine ratio)” value in the data set with AT1R transgenic rats is on record as “efficacious”.
